From article PMC9863159, “Isolation and Identification of Lipid-Lowering Peptides from Sacha Inchi Meal” (International Journal of Molecular Sciences, 2023)
Like-named read-outs stand apart in the source and are kept apart here. Peptide text beside a SMILES is read from it.

Tests used:
pancreatic lipase [1] = molecular target: T1, pancreatic lipase (Sus scrofa, UniProt P00591); assay: Pancreatic lipase inhibitory activity (4-MUO fluorescence); format: biochemical; details: for inhibition at 500 µM: peptide concentration 0.5 mM, read-out: inhibitory percentage on pancreatic lipase; for IC50: read-out: IC50 against pancreatic lipase
T1 sequence (P00591 1-450): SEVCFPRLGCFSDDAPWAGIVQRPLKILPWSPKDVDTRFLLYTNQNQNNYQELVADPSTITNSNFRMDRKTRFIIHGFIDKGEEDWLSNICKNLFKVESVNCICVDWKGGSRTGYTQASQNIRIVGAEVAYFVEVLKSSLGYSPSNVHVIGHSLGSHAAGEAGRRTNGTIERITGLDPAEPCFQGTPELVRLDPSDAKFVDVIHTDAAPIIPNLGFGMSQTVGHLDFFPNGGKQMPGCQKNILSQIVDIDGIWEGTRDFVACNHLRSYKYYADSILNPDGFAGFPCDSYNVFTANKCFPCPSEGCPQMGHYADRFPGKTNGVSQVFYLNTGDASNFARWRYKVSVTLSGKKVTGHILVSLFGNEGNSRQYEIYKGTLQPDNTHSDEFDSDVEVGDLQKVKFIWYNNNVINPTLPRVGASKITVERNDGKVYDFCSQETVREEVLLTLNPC
Protocol: The sample was diluted to an appropriate concentration with Tris HCl buffer. […] The fluorescence intensity was measured at excitation wavelength λex = 320 nm and emission wavelength λem = 450 nm. A buffer (25 μL) and enzyme solution (25 μL) were added for the control group. A sample solution (25 μL) and buffer (25 μL) were added for background group. Each group of experiments was repeated 3 times. The calculation formula of pancreatic lipase inhibition rate was as follows:(1) Lipase inhibition rate (%)=(1−FLUsample−FLUbackground/FLUnegative control−FLUnegative background)×100
Among them, FLUsample was the light absorption value of the experimental group; FLUbackground was the light absorption value of the sample background group; FLUnegative control was the absorbance value of the control group without samples; and FLUnegative background was the absorbance value of the background of the control group.

pancreatic lipase [2] = molecular target: T1, pancreatic lipase; assay: Inhibition kinetics of pancreatic lipase (Lineweaver–Burk); format: biochemical; details: read-out: equilibrium constant Ki
Protocol: In total, a 25 μL sample solution of different concentrations, a 25 μL enzyme solution, and 50 μL substrates with different concentrations were added to the 96-well plate. The fluorescence value FLU was immediately measured at the excitation wavelength λex = 320 nm and emission wavelength λem = […], every 1 min within 20 min, and each group of experiments was repeated 3 times. The slope of the “fluorescence value-time” linear fitting curve represented the reaction rate of the enzyme in the presence of the sample. The Lineweaver–Burk double reciprocal diagram was drawn to analyze the inhibition type of synthetic peptides on enzymes.

pancreatic lipase [3] = molecular target: T1, pancreatic lipase; parameters: method as in PMID 36195236; details: peptides from sesame proteins ref 6; cited from earlier work
[4] = tested on: porcine pancreatic lipase; parameters: method as in PMID 31569521; details: 200 µg/mL ref 25; cited from earlier work
3T3-L1 cells = tested on: 3T3-L1 cells; parameters: method as in PMID 31569521; details: 600 µg/mL, 3T3-L1 cells ref 25; cited from earlier work
3T3-L1 preadipocytes = tested on: 3T3-L1 preadipocytes; parameters: method as in doi:10.1016/j.jff.2018.05.066; details: 600 μg/mL, compared with the control ref 24; cited from earlier work
[5] = cited from earlier work
HepG2 cells = assay: Fat accumulation (oil red O) and triglyceride content in oleic acid-induced HepG2; format: cell-based; details: orlistat positive control 2 mM, peptides at different concentrations
Protocol: The HepG2 cells (Guangzhou Health Institute, Guangzhou, China) in logarithmic growth period were starved with serum-free medium for 12 h. Then, we replaced the medium with a complete medium containing 0.5 mM oleic acid and 0.4% FBS, and cultured this for 2–4 days (replacing the new oleic acid containing medium every day). The cells were divided into groups, and samples were added to each group as follows: Normal group: 1 mL of complete medium containing 0.4% serum; Model group: 1 mL of medium containing 0.5 mM oleic acid and 0.4% FBS; Positive control group: 1 mL of medium containing 2 mM orlistat, 0.5 mM oleic acid and 0.4% FBS; Sample treatment group: adding 1 mL of samples with different concentrations (high, medium, low) and medium containing 0.5 mM oleic acid and 0.4% FBS. […] Then, the paraformaldehyde solution was discarded, PBS was washed 3 times, and 1 mL of oil red O staining solution was added to each well. After dyeing at 37 °C for 1 h, the dye solution was discarded, washed with PBS 3 times, and 1 mL of PBS was added to prevent cell drying. […] According to the instructions of the triglyceride (TG) test box, the TG content of each well was measured using the GPO-PAP method, and the protein content was measured using the BCA method. The results were expressed as the triglyceride content per gram of protein (mmol/g protein).

pancreatic lipase [6] = molecular target: T1, pancreatic lipase; assay: Fluorescence quenching assay of pancreatic lipase; details: binding constant Ka, Table S2

`CC(C)[C@H](NC(=O)[C@H](Cc1ccc(O)cc1)NC(=O)[C@H](Cc1c[nH]c2ccccc12)NC(=O)[C@@H](N)Cc1c[nH]c2ccccc12)C(=O)N[C@@H](CCCCN)C(=O)O` [WK-5, WWYVK] (H-WWYVK-OH) showed an inhibition at 500 µM (pancreatic lipase [1]) of 68.9 ± 1.8%, an IC50 (pancreatic lipase [1]) of 246 µM and a Ki (pancreatic lipase [2]) of 578 ± 25.7 µM.
For `CSCC[C@H](NC(=O)[C@H](CC(C)C)NC(=O)[C@H](CC(C)C)NC(=O)CNC(=O)[C@@H](N)CCC(=O)O)C(=O)N[C@@H](Cc1c[nH]c2ccccc12)C(=O)N1CCC[C@H]1C(=O)N[C@@H](Cc1ccc(O)cc1)C(=O)O` [EY-8] (H-EGLLMWPY-OH), the inhibition at 500 µM (pancreatic lipase [1]) was 80.47 ± 0.11%, the IC50 (pancreatic lipase [1]) was 171 µM and the Ki (pancreatic lipase [2]) was 578 ± 58.1 µM.
In the case of QWM, the IC50 (pancreatic lipase [3]) is given as 986 ± 170 µM.
In the case of “Leu-Leu-Val-Val-Try-Pro-Trp-Thr-Gln-Arg [PP1]”, the “inhibitory effect against porcine pancreatic lipase” value [4] is given as 47.95% and the “decrease of accumulation of intracellular triacylglycerol” value (3T3-L1 cells) is given as 27.9%.
In the case of CANPHELPNK, the “inhibition on triglyceride production” value (3T3-L1 preadipocytes) is listed as 19.5%.
For AGY, the IC50 (pancreatic lipase [3]) is listed as 1180 ± 179 µM.
For NIF, the IC50 (pancreatic lipase [3]) is given as 1040 ± 179 µM.
In the case of VVYP, the effect on hypertriglyceridemia [5] is given as “inhibitory effect on hypertriglyceridemia”.
For NPVWKRK, the “inhibition on triglyceride production” value (3T3-L1 preadipocytes) is listed as 23.7%.
With `CCCCCCCCCCC[C@@H](C[C@@H]1OC(=O)[C@H]1CCCCCC)OC(=O)[C@H](CC(C)C)NC=O` [orlistat] the “fat (oil) accumulation in HepG2 cells, oil red O staining” value (HepG2 cells) was “significantly reduce the oil accumulation in cells”.
For `CC(C)C[C@H](NC(=O)[C@@H](N)CC(N)=O)C(=O)N[C@@H](Cc1ccc(O)cc1)C(=O)N[C@@H](Cc1ccc(O)cc1)C(=O)N[C@@H](CCCCN)C(=O)N[C@H](C(=O)N[C@H](C(=O)O)C(C)C)C(C)C` [NV-7, NLYYKVV] (H-NLYYKVV-OH), the inhibition at 500 µM (pancreatic lipase [1]) was 95.42 ± 0.6%, the Ki (pancreatic lipase [2]) was 77.3 ± 7.65 µM and the Kd (pancreatic lipase [6]; 298 K) was 93.8 µM. It also gave a Kd (pancreatic lipase [6]; 304 K) of 106 µM and a Kd (pancreatic lipase [6]; 310 K) of 203 µM.
In the case of `CSCC[C@H](NC(=O)[C@H](CC(C)C)NC(=O)[C@H](CC(C)C)NC(=O)[C@@H](N)Cc1c[nH]c2ccccc12)C(=O)N[C@@H](Cc1c[nH]c2ccccc12)C(=O)N1CCC[C@H]1C(=O)N[C@@H](Cc1ccc(O)cc1)C(=O)N[C@@H](CCCCN)C(=O)O` [WK-8] (H-WLLMWPYK-OH), the inhibition at 500 µM (pancreatic lipase [1]) is reported as 67.3 ± 1.1%, the IC50 (pancreatic lipase [1]) is reported as 52.8 µM and the Ki (pancreatic lipase [2]) is reported as 192 ± 25.3 µM.
